The values that follow come from BindingDB's records for doi:10.1016/j.bmcl.2004.04.008 (Fudan University, 2004).

Test [1] can be described thus: Inhibitory concentration against SO561945 (HIV 1 mutant RT) viral infection of MT-4 cells.
Test [2] can be described thus: Concentration required to protect the cell against HIV-1 strain IIIB viral cytopathogenicity by 50% in MT-4 cells. On the technique in general: Cytopathic effects are the visible damage that an infection or toxin causes in cultured cells.
Test [3] in a line: Inhibitory concentration against SO561945 (HIV 1 mutant RT) viral infection of MT-4 cells. The source holds these as a separate data set.

By IC50 is commonly meant the midpoint of a concentration-inhibition curve. The low end stands for greater potency in that assay, the high end for weaker potency in that assay. In the case of `Cc1c(Sc2ccccc2)n(COCCO)c(=O)[nH]c1=O`, the IC50 in test [1] is greater than 405 µM; in test [2] it was 5.06 µM. In turn, `COc1ccc(C(=O)CSc2nc(Cc3cccc4ccccc34)c(C)c(=O)[nH]2)cc1` returned an IC50 in test [3] of 0.37 µM.

In the case of `CCc1c(Cc2cccc3ccccc23)nc(SCC(=O)c2ccc(F)cc2)[nH]c1=O`, the IC50 was found to be 24.2 µM in test [1] and 0.078 µM in test [2]. As for `COC(=O)CSc1nc(Cc2cccc3ccccc23)c(C(C)C)c(=O)[nH]1`, the IC50 was greater than 179 µM in test [1] and 4.49 µM in test [2]. The compound `CCc1c(Cc2cccc3ccccc23)nc(SCC(=O)c2ccc(C)cc2)[nH]c1=O` showed an IC50 in test [3] of 0.32 µM. Regarding `CC(=O)CSc1nc(Cc2cccc3ccccc23)c(C(C)C)c(=O)[nH]1`, the half-inhibitory concentration (IC50) in test [1] was greater than 43.1 µM; in test [2] it was 0.41 µM.

For the compound `CCc1c(Cc2cccc3ccccc23)nc(SCC(=O)c2ccc(OC)cc2)[nH]c1=O`, the half-inhibitory concentration (IC50) in test [3] is 0.045 µM; in test [1], greater than 178 µM. In the case of `COc1ccc(C(=O)CSc2nc(Cc3cccc4ccccc34)c(C(C)C)c(=O)[nH]2)cc1`, the figures for the IC50 in test [1] and in test [2] were 5.82 µM and 0.03 µM, respectively. Turning to `CCc1c(Cc2cccc3ccccc23)nc(SCC(=O)c2ccc(Cl)cc2)[nH]c1=O`, the values for the concentration for half-maximal inhibition (IC50) in test [1] and in test [2] were greater than 56 µM and 0.26 µM, respectively. On to `CCOC(=O)CSc1nc(Cc2cccc3ccccc23)c(C)c(=O)[nH]1`, for which the IC50 in test [3] came to 7 µM. Take `COC(=O)CSc1nc(Cc2cccc3ccccc23)c(C)c(=O)[nH]1`: in test [3], the half-inhibitory concentration (IC50) came to 6.99 µM.

Consider `CCOC(=O)CSc1nc(Cc2cccc3ccccc23)c(C(C)C)c(=O)[nH]1`, for which the IC50 in test [3] was 1.41 µM; in test [1] it was greater than 175 µM. `Cc1ccc(C(=O)CSc2nc(Cc3cccc4ccccc34)c(C)c(=O)[nH]2)cc1` came in with an IC50 in test [3] of 0.67 µM. On to `Cc1c(Cc2cccc3ccccc23)nc(SCC(=O)c2ccc(F)cc2)[nH]c1=O`, for which, in test [3], half-maximal inhibition (IC50) required 0.18 µM.

As for `CC(C)c1c(Cc2cccc3ccccc23)nc(SCC(=O)c2ccc(F)cc2)[nH]c1=O`, the half-inhibitory concentration (IC50) in test [1] was found to be 188 µM; in test [2], 0.078 µM.

On to `CC(C)c1c(Cc2cccc3ccccc23)nc(SCC(=O)c2ccc(Cl)cc2)[nH]c1=O`, for which the half-maximal inhibitory concentration (IC50) is greater than 270 µM in test [3] and 0.32 µM in test [2]. Regarding `Cc1c(Cc2cccc3ccccc23)nc(SCC(=O)c2ccc(Cl)cc2)[nH]c1=O`, in test [3], the IC50 worked out at 0.55 µM. `Cc1ccc(C(=O)CSc2nc(Cc3cccc4ccccc34)c(C(C)C)c(=O)[nH]2)c(C)c1`: the concentration for half-maximal inhibition (IC50) in test [3] was 0.24 µM; in test [1] it was 2.67 µM. Regarding `CC(C)c1c(Cc2cccc3ccccc23)nc(SCC(=O)c2ccccc2)[nH]c1=O`, the IC50 in test [1] is 19.6 µM; in test [2], 0.046 µM.

Compound `CCc1c(Cc2cccc3ccccc23)nc(SCC(=O)OC)[nH]c1=O` displayed a 50% inhibitory concentration (IC50) in test [3] of 4.72 µM. As to `CC(=O)CSc1nc(Cc2cccc3ccccc23)c(C)c(=O)[nH]1`, half-maximal inhibition in test [3] (IC50) required 1.12 µM.

`Cc1ccc(C(=O)CSc2nc(Cc3cccc4ccccc34)c(C(C)C)c(=O)[nH]2)cc1` displayed an IC50 in test [3] of 0.24 µM.

On to `O=c1[nH]cnc2c1ncn2[C@H]1CC[C@@H](CO)O1` [BMY-40900], for which the figures for the IC50 in test [1] and in test [2] were 7.15 µM and 5.37 µM, respectively.
